Columns and labels:
[1] = tested on: Colo-205 cells; assay: Colo-205 tumor cell proliferation, CCK-8, 72 hours; type: cell-based
[2] = Liver microsomal metabolic stability, human; type: in vitro ADME; conditions: liver microsomes, 0.5 mg/mL microsomes, 1 μM compound, NADPH, read-out: Liver microsomal stability T1/2
Procedure: The reaction was stopped with tinidazole-containing acetonitrile at 0 min, 5 min, 10 min and 30 min, respectively. After vortexing for 10 min and centrifuging at 15,000 rmp for 10 min, 50 μL of the supernatant was injected into a 96-well plate. The metabolic stability of the compound was calculated by determining the relative reduction of the drug, calculated as half-life T1/2.

[3] = biological target: T1, CYP1A2 (Homo sapiens, UniProt P05177); assay: Direct inhibition test (DI test) in human liver microsomes, CYP1A2
T1 sequence (P05177 1-516): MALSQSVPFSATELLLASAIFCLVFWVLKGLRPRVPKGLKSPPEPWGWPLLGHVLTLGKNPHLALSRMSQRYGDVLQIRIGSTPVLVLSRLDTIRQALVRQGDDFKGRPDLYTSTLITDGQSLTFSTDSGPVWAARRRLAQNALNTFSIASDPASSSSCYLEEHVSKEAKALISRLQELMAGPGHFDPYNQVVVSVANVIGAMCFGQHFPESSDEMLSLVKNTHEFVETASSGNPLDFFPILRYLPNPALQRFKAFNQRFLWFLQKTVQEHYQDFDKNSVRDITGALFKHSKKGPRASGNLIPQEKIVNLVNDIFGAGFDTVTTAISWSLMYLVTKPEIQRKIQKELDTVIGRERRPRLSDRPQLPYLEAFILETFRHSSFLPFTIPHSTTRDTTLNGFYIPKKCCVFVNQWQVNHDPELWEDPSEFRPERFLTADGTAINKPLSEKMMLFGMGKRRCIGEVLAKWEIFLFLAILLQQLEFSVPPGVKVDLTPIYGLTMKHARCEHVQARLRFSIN
Procedure: (§1) (2) Direct inhibition test (DI test): A system containing 100 μL of human liver microsomes (final concentration of 0.2 mg/mL) was subjected to a direct inhibition incubation, and the system contained NADPH (final concentration of 1 mM), 10 μM compound, positive inhibitor cocktail (10 μM ketoconazole, 10 μM quinidine, 100 μM sulfaphenazole, 10 μM α-naphthoflavone, 1,000 μM tranylcypromine), negative control (BPS of 0.1% DMSO), and mixed probe substrates (10 μM midazolam, 100 μM testosterone, 10 μM dextromethorphan, […], 100 μM phenacetin, 100 μM mephenytoin). After 20 minutes of incubation, the reaction was stopped. The relative activity of the enzyme was calculated by measuring the relative production of metabolites.

[4] = biological target: T2, CYP2D6 (Homo sapiens, UniProt P10635); assay: Direct inhibition test (DI test) in human liver microsomes, CYP2D6; type: in vitro ADME
T2 construct: A system containing 100 μL of human liver microsomes; from tissue; host or cells: human liver microsomes
T2 sequence (P10635 whole entry): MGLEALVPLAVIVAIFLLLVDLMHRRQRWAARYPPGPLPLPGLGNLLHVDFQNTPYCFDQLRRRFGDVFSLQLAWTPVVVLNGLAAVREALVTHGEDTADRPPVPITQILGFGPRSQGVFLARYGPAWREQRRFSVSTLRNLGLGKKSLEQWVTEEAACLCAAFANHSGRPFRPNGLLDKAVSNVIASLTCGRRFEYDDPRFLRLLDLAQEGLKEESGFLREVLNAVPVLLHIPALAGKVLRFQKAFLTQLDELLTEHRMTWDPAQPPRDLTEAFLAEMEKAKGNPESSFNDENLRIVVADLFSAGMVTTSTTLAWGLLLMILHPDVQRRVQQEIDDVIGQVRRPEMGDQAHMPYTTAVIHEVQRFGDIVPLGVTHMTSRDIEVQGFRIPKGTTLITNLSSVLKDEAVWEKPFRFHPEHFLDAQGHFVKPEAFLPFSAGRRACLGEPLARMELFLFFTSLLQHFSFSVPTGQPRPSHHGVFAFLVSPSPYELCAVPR
Procedure: as §1

[5] = In-vivo pharmacokinetic parameters in SD rats
Procedure: Six male SPF grade SD rats or Balb-c mice (Shanghai Sipple-Bikai Laboratory Animal) were divided into two groups, and the tested compounds were prepared into appropriate solutions or suspensions; one group was administered intravenously (with a dose of 1 mg/kg), and the other group was administered orally (with a dose of 5 mg/kg). Blood samples were collected by jugular vein puncture, and each sample was collected with a volume of about 0.2 mL/time point, and heparin sodium was used for anticoagulation. The time points of blood collection were listed below: 5, 15 and 30 min […], 1, 2, 4, 6, 8 and 24 h after administration; the collected blood samples were placed on ice and centrifuged to separate plasma (centrifugation conditions: 8,000 rpm, 6 min, 2 to 8° C.), and the collected plasma was stored at −80° C. before analysis. Plasma samples were analyzed by LC-MS/MS.
The pharmacokinetic parameters such as AUC0-t, AUC0-∞, MRT0-∞, Cmax, Tmax, T1/2 and Vd of the tested compounds and their mean values and standard deviations were calculated by the pharmacokinetic calculation software WinNonlin5.2 non-compartmental model according to the plasma concentration data. In addition, the bioavailability (F) was calculated by the following formula.
For samples with concentrations below the lower limit of quantitation, while pharmacokinetic parameter calculations were performed, samples sampled before Cmax was reached should be calculated as a zero value and samples sampled after Cmax was reached should be calculated as below limit of quantitation (BLQ).

[6] = male, rat, plasma, 1 mg/kg, IV, 1 mpk
[7] = male, rat, plasma, 5 mg/kg, PO, 5 mpk

SMILES: COc1cc(F)cc([C@@H](CO)NC(=O)[C@@H](C)N2Cc3ccc(-c4nc(NC5CCOCC5)ncc4F)c(F)c3C2=O)c1 [Embodiment 40]
- cell proliferation inhibitory activity (in words) ([1]; Colo-205): strong cell proliferation inhibitory activity
- IC50 ([1]; Homo sapiens, COLO 205, 72 hours, CCK-8, numeric values, read-out: Colo-205 IC50): 0.0038 µM
- half-life at 1 μM [2]: 14 min
- IC50 [3]: > 10 µM
- IC50 [4]: > 10 µM
- F ([5]; PO 5 mpk vs IV 1 mpk): 29%
- AUC(0-inf) [5, 6]: 0.304 µM·h
- AUC(0-t) [5, 6]: 0.303 µM·h
- MRT inf [5, 6]: 12 min
- clearance [5, 6]: 94 mL/min/kg
- half-life [5, 6]: 18 min
- Vd ([5]; male, rat, plasma, 1 mg/kg, IV, 1 mpk, read-out: Vss): 0.9 L/kg
- AUC(0-inf) [5, 7]: 0.436 µM·h
- AUC(0-t) [5, 7]: 0.432 µM·h
- Cmax [5, 7]: 476 nM
- Tmax [5, 7]: 18 min
- half-life [5, 7]: 66 min
